The target of assay [1] is T1, JAK3 enzyme (Homo sapiens, UniProt P52333).
T1 sequence (P52333 1-1124): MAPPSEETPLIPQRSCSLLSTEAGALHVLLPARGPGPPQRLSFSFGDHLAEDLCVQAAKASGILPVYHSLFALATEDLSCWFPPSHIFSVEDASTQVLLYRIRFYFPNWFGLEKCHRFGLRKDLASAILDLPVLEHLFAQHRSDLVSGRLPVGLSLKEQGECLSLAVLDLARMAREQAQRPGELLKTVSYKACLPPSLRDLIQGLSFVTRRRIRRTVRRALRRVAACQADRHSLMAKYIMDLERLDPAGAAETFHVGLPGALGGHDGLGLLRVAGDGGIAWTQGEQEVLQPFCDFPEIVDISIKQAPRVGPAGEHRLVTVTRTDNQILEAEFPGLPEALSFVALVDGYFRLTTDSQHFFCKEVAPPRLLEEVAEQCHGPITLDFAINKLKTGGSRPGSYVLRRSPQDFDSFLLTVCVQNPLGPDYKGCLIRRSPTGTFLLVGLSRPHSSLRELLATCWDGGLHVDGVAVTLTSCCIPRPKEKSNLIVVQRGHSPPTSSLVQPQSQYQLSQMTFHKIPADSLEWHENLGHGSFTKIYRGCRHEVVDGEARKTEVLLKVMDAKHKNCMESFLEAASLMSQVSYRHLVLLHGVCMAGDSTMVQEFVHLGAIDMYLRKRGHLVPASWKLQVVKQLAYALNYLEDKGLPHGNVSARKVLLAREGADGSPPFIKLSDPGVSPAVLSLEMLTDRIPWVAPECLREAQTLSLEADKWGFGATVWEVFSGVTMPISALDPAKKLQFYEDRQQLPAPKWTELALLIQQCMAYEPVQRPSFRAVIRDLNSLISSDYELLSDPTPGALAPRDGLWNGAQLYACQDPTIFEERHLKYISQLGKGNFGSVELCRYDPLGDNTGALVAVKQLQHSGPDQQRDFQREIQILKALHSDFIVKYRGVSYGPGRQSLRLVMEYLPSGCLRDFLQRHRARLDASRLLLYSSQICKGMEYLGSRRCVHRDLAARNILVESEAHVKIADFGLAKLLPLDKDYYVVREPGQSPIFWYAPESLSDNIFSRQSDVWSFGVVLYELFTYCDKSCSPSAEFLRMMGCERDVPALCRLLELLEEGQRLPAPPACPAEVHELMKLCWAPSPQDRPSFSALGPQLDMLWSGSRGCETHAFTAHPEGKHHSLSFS
In words: JAK Caliper Enzyme Assay at 4 μM ATP. Format: biochemical. The essentials: (§1)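 First, compound stocks in DMSO were serially diluted half-log over 11 points, starting at 600 μM. Next, reactions ran with batch-optimized enzyme and timing targeting 20%-30% phosphorylation. Finally, wells were sampled and product separated from substrate peptide electrophoretically.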

Assay [2] deals with T1, JAK3 enzyme. In words: JAK Caliper Enzyme Assay at 1 mM ATP. The assay is classed as biochemical. In short, it runs like this: as §1
For assay [3], the system named is IL-15 induced STAT5 phosphorylation in human whole blood lymphocytes. In words: HWB IL-15 Induced STAT5 Phosphorylation Assay. Format: cell-based. As to conditions: Lymphocyte, IL-15 final 50 ng/ml, read-out: HWB_IL15 pSTAT5 IC50. As to the method:
HWB IL-15 Induced STAT5 Phosphorylation Assay
After serial dilution of the test compounds 1:2 in DMSO at desired concentration (500× of final), the compounds were further diluted in PBS (by adding 4 μL compound/DMSO in 96 μL PBS, [DMSO]=4%, 20× final). To 96-well polypropylene plates were added 90 μl HWB (heparin treated Human Whole Blood)/well, followed by 5 μl/well 4% DMSO in D-PBS or various concentrations of 20× inhibitor in 4% DMSO in D-PBS (w/o Ca^+2 or Mg^+2) to give 1× in 0.2% DMSO. After mixing and incubating for 45 minutes at 37° C., 5 μl D-PBS (unstimulated control) or 20× stocks of 5 μl human IL-15 (final concentration is 50 ng/ml) were added, and mixed three times. After incubating 15 minutes at 37° C., 1× Lyse/Fix Buffer (BD Phosflow 5× Lyse/Fix Buffer) was added to all wells at 1000 μl/well, then incubated for 20 minutes at 37° C. and spun 5 mins at 1200 rpm. After washing in 1000 μl FACS buffer 1× and spinning for 5 mins at 1200 rpm, 400 μl ice cold Perm Buffer III were added to each well. After mixing gently (1-2×) and incubating on ice for 30 minutes, spinning for 5 mins at 1200 rpm without interruption, and washing 1× in cold […] FACS buffer (D-PBS containing 0.1% BSA and 0.1% sodium azide) 250 μl/well of the desired AlexaFluor647-conjugated anti-phospho STATS antibody at 1:125 dilution in FACS buffer was added. Following incubating at 4° C. over night, all the samples were transferred to 96-well polypropylene U-bottom plate, and checked by flow cytometry gated on total lymphocytes.

The subject of assay [4] is IL-15 induced P-STAT5 in human PBMC. In words: PBMC IL-15 Induced P-STAT5. The assay is classed as cell-based. To be noted: human PBMC, IL-15 final 41 ng/mL; read-out: PBMC IL15_pSTAT5_IC50. The essentials:
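Thawed human PBMC, rested in human plasma, were preincubated 15 min at 37 °C with compound (0.2% DMSO), then stimulated 15 min with IL-15 at 41 ng/mL final. After paraformaldehyde fixation and methanol permeabilisation, Alexa Fluor 647 anti-STAT5 staining overnight at 4 °C was analysed by flow cytometry on total lymphocytes.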

Molecules are shown by their SMILES.

In the case of `C=CC(=O)N1CCC(Nc2cnc3[nH]cc(C(=O)NCc4scnc4C(F)(F)F)c3n2)CC1` [Example 185, 2-[(1-acryloylpiperidin-4-yl)amino]-N-{[4-(trifluoromethyl)-1,3-thiazol-5-yl]methyl}-5H-pyrrolo[2,3-b]pyrazine-7-carboxamide], the IC50 came to 0.372 nM in assay [1], 6 nM in assay [2], 542 nM in assay [3] and 73 nM in assay [4].
For the compound `C=CC(=O)N1CCN(c2cnc3[nH]cc(C(=O)NCC(C)(C)C)c3n2)C[C@@H]1CC(C)C` [Example 330, 2-[(3S)-4-acryloyl-3-(2-methylpropyl)piperazin-1-yl]-N-(2,2-dimethylpropyl)-5H-pyrrolo[2,3-b]pyrazine-7-carboxamide], the IC50 in assay [1] was 0.287 nM; in assay [2] it was 45 nM; in assay [3], 1970 nM; in assay [4], 122 nM.
Turning to `C=CC(=O)N1CCN(c2cnc3[nH]cc(C(=O)NC[C@H](C)CC(F)(F)F)c3n2)CC1` [Example 336, 2-(4-acryloylpiperazin-1-yl)-N-[(2R)-4,4,4-trifluoro-2-methylbutyl]-5H-pyrrolo[2,3-b]pyrazine-7-carboxamide], the IC50 in assay [1] is 0.24 nM; in assay [2], 26 nM; in assay [3] it was 373 nM; in assay [4], 107 nM.
Turning to `C=CC(=O)N1CC[C@@H](Nc2cnc3[nH]cc(C(=O)N[C@@H](C)COC)c3n2)[C@@H](OC)C1` [Example 312, 2-{[(3S,4R)-1-acryloyl-3-methoxypiperidin-4-yl]amino}-N-[(2S)-1-methoxypropan-2-yl]-5H-pyrrolo[2,3-b]pyrazine-7-carboxamide], the IC50 in assay [1] worked out at 1.05 nM; in assay [2], 56 nM; in assay [3], 704 nM; in assay [4] it was 310 nM.
In the same order, the values of `C=CC(=O)N1CCC(Nc2cnc3[nH]cc(C(=O)NCc4sc(C(F)(F)F)nc4C)c3n2)CC1` [Example 180, 2-[(1-acryloylpiperidin-4-yl)amino]-N-{[4-methyl-2-(trifluoromethyl)-1,3-thiazol-5-yl]methyl}-5H-pyrrolo[2,3-b]pyrazine-7-carboxamide] are 0.481 nM, 12 nM, 944 nM and 204 nM.
In the same order, the values of `C=CC(=O)N1CCC(Oc2cnc3[nH]cc(C(=O)NCCOC)c3n2)CC1` [Example 211, 2-[(1-acryloylpiperidin-4-yl)oxy]-N-(2-methoxyethyl)-5H-pyrrolo[2,3-b]pyrazine-7-carboxamide] are 0.5 nM, 74 nM, 1740 nM and 395 nM.
As for `C=CC(=O)N1CCN(c2cnc3[nH]cc(C(=O)N[C@H](CC)CC#N)c3n2)CC1(C)C` [Example 318, 2-(4-acryloyl-3,3-dimethylpiperazin-1-yl)-N-[(2R)-1-cyanobutan-2-yl]-5H-pyrrolo[2,3-b]pyrazine-7-carboxamide], the IC50 in assay [1] came to 0.535 nM; in assay [2], 59 nM; in assay [3], 1760 nM; in assay [4], 214 nM.
For the compound `C=CC(=O)N1CCC(C)(Nc2cnc3[nH]cc(C(=O)NCC(C)C)c3n2)CC1` [Example 301, 2-[(1-acryloyl-4-methylpiperidin-4-yl)amino]-N-(2-methylpropyl)-5H-pyrrolo[2,3-b]pyrazine-7-carboxamide], the IC50 in assay [1] came to 0.431 nM; in assay [2] it was 44 nM; in assay [3] it was 3030 nM; in assay [4], 387 nM.
In the same order, the values of `C=CC(=O)N1CCN(c2cnc3[nH]cc(C(=O)NC4CCCOC4)c3n2)CC1(C)C` (racemic) [Example 149, Racemic-2-(4-acryloyl-3,3-dimethylpiperazin-1-yl)-N-(tetrahydro-2H-pyran-3-yl)-5H-pyrrolo[2,3-b]pyrazine-7-carboxamide] are 0.565 nM, 134 nM, 4240 nM and 163 nM.

The record behind these values is patent US10703756B2, “Pyrrolo[2,3-D]pyrimidinyl, pyrrolo[2,3-B]pyrazinyl, pyrrolo[2,3-B]pyridinyl acrylamides and epoxides thereof” (Pfizer Inc., priority 2015, dated 2020).
